Data from patent US8598344B2, “CDKI pathway inhibitors and uses thereof” (Senex Biotechnology, priority 2009, dated 2013).

How the values were obtained:
Assay in all cases: Colon carcinoma cell proliferation, FACS count of live cells
C26 = assay type: cell-based, murine; conditions: 72 hrs, 2.5, 5 or 10 μM
Protocol: (§1) Inhibition of β-catenin, which is positively regulated by CDK8, was reported to inhibit proliferation of some colon carcinoma cell lines (Firestein et al., 2008). We have therefore determined the ability of compound 1 to inhibit the proliferation of several colon carcinoma cell lines, including human DLD1, HCT116, SW480 and murine C26. This analysis waqs carried out by incubating cells for 72 hrs in the presence of 0, 2.5, 5 or 10 μM compound 1, followed by FACS measurement of the number of live cells, as defined by the lack of uptake of membrane-impermeable dye propidium iodide.

SW480 = assay type: cell-based, human; conditions: 72 hrs, 2.5, 5 or 10 μM
Protocol: as §1

DLD1 cells = assay type: cell-based, human; conditions: 72 hrs; read-out: IC50, growth inhibition
Protocol: as §1

## N#Cc1ccc2ncnc(NCCc3ccccc3)c2c1 [compound 1]
C26
  growth of colon carcinoma cell line: inhibited the growth
SW480
  growth of colon carcinoma cell line: inhibited the growth
DLD1 cells
  IC50: ~5 µM
